Key:
[1] = DPPH Spectrophotometer Assay (free radical scavenging); format: biochemical; conditions: for DPPH EC50: Table 5; for antioxidant properties in words: comment on DPPH and NORA results of Table 5; for antioxidant capacity in words: in both DPPH and nitric oxide free radical systems, Table 3
Source text: The free radical 2,2-Diphenyl-1-picrylhydrazyl (DPPH) may be used to determine free radical scavenging ability of test materials such as a scavenging agent of the present invention. […] Measurements are taken after the reaction between the test scavenging agent and DPPH reaches steady state. DPPH is a free radical that changes color when it reacts with an antioxidant. The color change in DPPH is an indication of antioxidant power. […] Thus, DPPH serves as a model for free radical oxidation. Provided below are details for conducting a DPPH Spectrophotometer Assay:
Weigh 100 mg sample into 15 ml conical centrifuge tube.
Add 1 ml DMSO. Vortex to mix.
Dilute samples in MeOH according to Table 2.
Dilute 1 mM DPPH (prepared in 80% MeOH) to 100 uM in 80% MeOH.
In 3 ml cuvette, add 200 uL sample dilution. Add 1.8 ml of 100 uM DPPH.
Mix well. Incubate 15 min at Room Temp. Read at […].
If cuvette appears cloudy due to precipitation of sample, prepare sample dilutions (Table 2) in DMF (or suitable solvent) instead of DMSO. Also prepare DPPH working solution (100 uM) in DMF (or suitable solvent) instead of MeOH.

[2] = Nitric Oxide Radical Absorbance (NORA) assay; format: biochemical; conditions: for inhibitory response for nitric oxide in words: comment on Table 3
Description: The NORA assay determines the ability of a compound to quench nitric oxide free radicals (NO*) produced by a NO* generator. In the assay, a target compound is oxidized using the nitric oxide generator NOR-3, resulting in increased fluorescence. […] Provided below are details for conducting a Nitric Oxide Radical Absorbance (NORA) Assay:
DHR123: 1.0 mg/3 ml MeOH=1 mM stock (Freeze and protect from light) 7.5 uL stock/10 ml Buffer=0.75 uM working solution.
NOR-3: 1.0 mg NOR-3/100 uL DMSO.
Oil: Weigh 100 mg into 15 ml polypropylene centrifuge tube. Add 5 ml
Prepare sample dilution in a 96-well polypropylene storage plate (2 mL/well), the dilution plate: • A. 60 uL Stock+1.94 ml DMF=200 ug/ml • B. 500 uL 200 ug/ml+500 ul DMF=100 ug/ml • C.
Positive Control: (1 uM Uric Acid)
Add 100 uL of each sample/PC/Blank in duplicate. Row H will contain PC only.
Add 70 uL Phosphate Buffer to all wells.
Add 30 uL NOR-3 to all wells.
Incubate plate 15 min at room temperature.

[3] = amount of test material required to inhibit nitric oxide oxidation by 50%, Table 3
[4] = Antioxidant Power equals 1/EC50, fragrant oils, Table 1

SMILES	DPPH EC50 [1] [g/g DPPH]	NORA EC50 ([2]; Table 5) [µg/mL]	NORA EC50 [2, 3] [µg/mL]	also measured
OCCOc1ccccc1 [2-Phenoxyethanol]	>2.82	>10.0		
OCCCc1ccccc1 [3-Phenyl-1-propanol]	>2.82	>10.0		
Cc1cc(C(C)(C)C)c(O)c(C(C)(C)C)c1 [BHT, butylated hydroxytoluene]	0.15	>10.0		
CC12CCC(CC1=O)C2(C)C (stereo not drawn) [Camphor]	>2.82	>10.0		
OCC=Cc1ccccc1 [Cinnamyl alcohol]	>2.82	11.8		
O=c1ccc2ccccc2o1 [Coumarin]	>2.82	>10.0		
CCCCCCCCC(=O)OCC [Ethyl monanoate]	>2.82	>10.0		
CCOC(=O)c1ccc(O)cc1 [Ethyl paraben]	>2.82	>10.0		
C=CCc1ccc(O)c(OC)c1 [Eugenol]	0.12	0.8		antioxidant properties in words [1]: excellent antioxidant properties
COc1cc(/C=C/C(=O)O)ccc1O [Ferulic acid]	0.19	0.3		antioxidant properties in words [1]: excellent antioxidant properties
CC(C)CC1CC(C)(O)CCO1 (stereo not drawn) [Florosa (Q), Florosa]			150.33	
CCCCCC1COCCC1OC(C)=O (stereo not drawn) [Jasmopyrane (Q), Jasmopyrane]			150.44	inhibitory response for nitric oxide in words [2]: performed more poorly than did lilial
CC(C=O)Cc1ccc(C(C)(C)C)cc1 (stereo not drawn) [Lilial (G), Lilial]			23.70	inhibitory response for nitric oxide in words [2]: better than expected inhibitory response
C=C(C)[C@H]1CC=C(C)CC1 [Limonene]	>2.82	>10.0		
Cc1occc(=O)c1O [Maltol]	2.82	10.0		antioxidant properties in words [1]: performed marginally well
CC1CCC(C(C)C)C(O)C1 (stereo not drawn) [Menthol]	>2.82	>10.0		
Cc1ccc(C(C)C)cc1 [Paracymene]			274.16	
CC(=O)CCc1ccc(O)cc1 [Raspberry Ketone]			10.14	antioxidant capacity in words [1]: greatest antioxidant capacity
Oc1cccc(O)c1 [Resorcinol]	0.74	>10.0		antioxidant properties in words [1]: good responses
Cc1ccc(C(C)C)c(O)c1 [Thymol]	0.65	>10.0		antioxidant properties in words [1]: good responses
Cc1c(C)c2c(c(C)c1O)CCC(C)(C(=O)O)O2 (stereo not drawn) [Trolox, reference compound]			0.046	
O=c1[nH]c(=O)c2[nH]c(=O)[nH]c2[nH]1 [Uric Acid, reference compound]			0.84	
COc1cc(C=O)ccc1O [Vanillin]			8.95	DPPH *AO Power [1, 4]: 0.0112 units/gram; antioxidant capacity in words [1]: greatest antioxidant capacity; NORA AO Power [2, 4]: 93 units/gram
COc1cc(CO)ccc1O [Vanillyl alcohol]	0.16	4.1		antioxidant properties in words [1]: excellent antioxidant properties
COc1cccc(CO)c1 [m-Anisyl alcohol]	>2.82	>10.0		

From patent US20060153888A1, “Methods for scavenging oxidizing nitrogen and oxygen species with fragrances having antioxidative properties” (Access Business Group International LLC, priority 2004, published 2006)
